Results on 73 compounds are retold here after ChEMBL document CHEMBL1144272, “Generation of a new class of hNK(2) receptor ligands using the 'fragment approach'” (Bioorg Med Chem Lett, 2005).

This assay has as its target T1, Substance-K receptor (Homo sapiens, UniProt P21452).
T1 sequence (P21452 whole entry): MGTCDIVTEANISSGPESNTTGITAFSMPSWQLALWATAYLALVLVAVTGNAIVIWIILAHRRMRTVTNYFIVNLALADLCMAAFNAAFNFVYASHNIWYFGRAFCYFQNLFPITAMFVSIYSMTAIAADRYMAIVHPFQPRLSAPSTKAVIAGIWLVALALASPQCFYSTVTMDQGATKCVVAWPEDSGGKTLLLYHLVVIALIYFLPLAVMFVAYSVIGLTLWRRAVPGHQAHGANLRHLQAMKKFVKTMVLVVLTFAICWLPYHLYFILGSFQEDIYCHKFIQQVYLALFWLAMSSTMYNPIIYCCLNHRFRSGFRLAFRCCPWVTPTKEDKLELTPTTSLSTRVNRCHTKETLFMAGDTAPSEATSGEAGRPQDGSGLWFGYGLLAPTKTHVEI
As to the kind of experiment: Binding affinity for human tachykinin receptor 2 was measured by using [125I]NKA as radio ligand.

Usually Ki stands for the dissociation constant of the complex between target and ligand, obtained from inhibition or displacement. `CC(C)(Oc1ccc(Cl)cc1)C(=O)N[C@H](Cc1ccccc1)C(=O)NCCCN1CCOCC1` yielded a Ki of 600 nM.

`O=C(Nc1ccccc1Oc1ccccc1)N[C@@H](Cc1ccccc1)C(=O)NCCCN1CCOCC1` registered a Ki of 5000 nM.

Take `O=C(NCCCN1CCOCC1)[C@@H](Cc1ccccc1)NC(=O)N1CCCC(O)(c2ccccc2)C1` (stereo partly drawn): the Ki was more than 10000 nM.

`COc1ccc(Oc2ccc(NC(=O)N[C@H](Cc3ccccc3)C(=O)NCCCN3CCOCC3)cc2)cc1` returned a Ki of more than 1000 nM.

As to `O=C(Nc1ccc(OCc2ccccc2)cc1)N[C@H](Cc1ccccc1)C(=O)NCCCN1CCOCC1` (stereo in doubt; 32b (D)), the Ki was determined as 630 nM.

In the case of `O=C(Nc1ccc(OCc2cccc(Cl)c2)cc1)N[C@H](Cc1ccccc1)C(=O)NCCCN1CCOCC1`, the Ki came to 630 nM.

`CN(C(=O)N[C@H](Cc1ccccc1)C(=O)NCCCN1CCOCC1)c1cccc(Oc2ccccc2)c1` gave a Ki of more than 3000 nM.

`O=C(Nc1ccc(OCc2ccccc2)cc1)N[C@@H](Cc1ccccc1)C(=O)NCCCN1CCOCC1` (stereo in doubt; 31a (L)) yielded a Ki of more than 1000 nM.

`O=C(NCCCN1CCOCC1)[C@H](Cc1ccccc1)NC(=O)N1CCN(c2ccccc2)CC1` gave a Ki of more than 3000 nM.

The compound `O=C(N[C@@H](Cc1ccccc1)C(=O)NCCCN1CCOCC1)c1ccccc1-c1ccccc1` had an inhibition constant Ki of more than 10000 nM.

As for `O=C(Nc1ccc(Oc2ccc(OC(F)(F)F)cc2)cc1)N[C@H](Cc1ccccc1)C(=O)NCCCN1CCOCC1`, the Ki is more than 1000 nM.

Take `CC(C)(Oc1ccccc1-c1ccccc1)C(=O)N[C@@H](Cc1ccccc1)C(=O)NCCCN1CCOCC1`: the Ki was 3100 nM.

`O=C(NCCCN1CCOCC1)[C@H](Cc1ccccc1)NC(=O)N1CCCC(O)(c2ccccc2)C1` (stereo partly drawn) displayed a Ki of 6300 nM.

Take `CC(C)(Oc1ccc(-c2ccccc2)cc1)C(=O)N[C@@H](Cc1ccccc1)C(=O)NCCCN1CCOCC1`: the Ki worked out at 7900 nM.

For `CC(C)c1cccc(OC(C)(C)C(=O)N[C@@H](Cc2ccccc2)C(=O)NCCCN2CCOCC2)c1`, the Ki was more than 1000 nM.

With `CC(C)(Oc1ccc(C(F)(F)F)cc1)C(=O)N[C@@H](Cc1ccccc1)C(=O)NCCCN1CCOCC1`, the Ki was more than 1000 nM.

`O=C(Nc1ccccc1Oc1ccccc1)N[C@H](Cc1ccccc1)C(=O)NCCCN1CCOCC1` gave a Ki of more than 10000 nM.

`O=C(Nc1ccccc1)N[C@@H](Cc1ccccc1)C(=O)NCCCN1CCOCC1` gave a Ki of more than 10000 nM.

`CN(C(=O)N[C@H](Cc1ccccc1)C(=O)NCCCN1CCOCC1)c1ccc(Oc2ccccc2)cc1` had a Ki of more than 3000 nM.

For `COc1cc(COc2ccc(NC(=O)N[C@@H](Cc3ccccc3)C(=O)NCCCN3CCOCC3)cc2)cc(OC)c1`, affinity was put at a Ki of 200 nM.

Turning to `CC(C)(Nc1ccccc1)C(=O)N[C@H](Cc1ccccc1)C(=O)NCCCN1CCOCC1`, the inhibitory constant (Ki) is more than 3000 nM.

`CC(C)(Oc1ccc(-c2ccccc2)cc1)C(=O)N[C@H](Cc1ccccc1)C(=O)NCCCN1CCOCC1` returned a Ki of 7900 nM.

Compound `CC(C)c1ccc(OC(C)(C)C(=O)N[C@@H](Cc2ccccc2)C(=O)NCCCN2CCOCC2)cc1` came in with a Ki of more than 1000 nM.

For `O=C(Nc1ccc(Sc2ccc(F)cc2)cc1)N[C@@H](Cc1ccccc1)C(=O)NCCCN1CCOCC1`, the affinity, expressed as Ki, was 130 nM.

`O=C(Nc1ccc(Oc2ccc(F)cc2)cc1)N[C@@H](Cc1ccccc1)C(=O)NCCCN1CCOCC1` gave a Ki of 16 nM.

`O=C(N[C@H](Cc1ccccc1)C(=O)NCCCN1CCOCC1)c1ccccc1` had a Ki of more than 10000 nM.

`CC(C)(C)c1ccc(Oc2ccc(NC(=O)N[C@@H](Cc3ccccc3)C(=O)NCCCN3CCOCC3)cc2)cc1` registered a Ki of 50 nM.

On to `O=C(N[C@@H](Cc1ccccc1)C(=O)NCCCN1CCOCC1)C(c1ccccc1)c1ccccc1`, for which the Ki was found to be 2000 nM.

As to `O=C(Nc1ccc(OCc2ccc(C(F)(F)F)cc2)cc1)N[C@H](Cc1ccccc1)C(=O)NCCCN1CCOCC1`, the Ki was determined as 5000 nM.

The compound `CCc1ccc(Oc2ccc(NC(=O)N[C@H](Cc3ccccc3)C(=O)NCCCN3CCOCC3)cc2)cc1` came in with a Ki of 630 nM.

The compound `CC(C)(Oc1cccc(-c2ccccc2)c1)C(=O)N[C@@H](Cc1ccccc1)C(=O)NCCCN1CCOCC1` gave a Ki of 6300 nM.

Turning to `O=C(Nc1cccc(Oc2ccccc2)c1)N[C@@H](Cc1ccccc1)C(=O)NCCCN1CCOCC1`, the Ki was 200 nM.

`CN(Cc1ccccc1)C(=O)N[C@H](Cc1ccccc1)C(=O)NCCCN1CCOCC1` had a Ki of 3000 nM.

As for `O=C(Nc1ccc(Oc2ccc(C(F)(F)F)cc2)cc1)N[C@@H](Cc1ccccc1)C(=O)NCCCN1CCOCC1`, the affinity corresponds to a Ki of 250 nM.

In the case of `CN(C(=O)N[C@H](Cc1ccccc1)C(=O)NCCCN1CCOCC1)c1cccc(Oc2cccc(F)c2)c1`, the Ki was more than 1000 nM.

For the compound `CC(C)(Oc1ccc(Cl)cc1)C(=O)N[C@@H](Cc1ccccc1)C(=O)NCCCN1CCOCC1`, the affinity, expressed as Ki, was 1600 nM.

As for `O=C(Nc1ccc(Sc2ccc(F)cc2)cc1)N[C@H](Cc1ccccc1)C(=O)NCCCN1CCOCC1`, the Ki is more than 200 nM.

With `O=C(Nc1ccc(OCc2ccccc2)cc1)N[C@H](Cc1ccccc1)C(=O)NCCCN1CCOCC1` (stereo in doubt; 31b (D)), affinity was put at a Ki of 100 nM.

`CC(C)c1ccc(OC(C)(C)C(=O)N[C@H](Cc2ccccc2)C(=O)NCCCN2CCOCC2)cc1` gave a Ki of more than 1000 nM.

`O=C(N[C@@H](Cc1ccccc1)C(=O)NCCCN1CCOCC1)c1ccccc1` displayed a Ki of more than 10000 nM.

For `CC(C)c1ccc(Oc2ccc(NC(=O)N[C@@H](Cc3ccccc3)C(=O)NCCCN3CCOCC3)cc2)cc1`, the affinity corresponds to a Ki of 63 nM.

`CC(C)(Nc1ccccc1Oc1ccccc1)C(=O)N[C@H](Cc1ccccc1)C(=O)NCCCN1CCOCC1` had a Ki of more than 3000 nM.

Compound `CC(C)(C)c1ccc(Oc2ccc(NC(=O)N[C@H](Cc3ccccc3)C(=O)NCCCN3CCOCC3)cc2)cc1` showed a Ki of 120 nM.

`CC(C)(Oc1ccccc1-c1ccccc1)C(=O)N[C@H](Cc1ccccc1)C(=O)NCCCN1CCOCC1` gave a Ki of 5000 nM.

On to `CN(C(=O)N[C@@H](Cc1ccccc1)C(=O)NCCCN1CCOCC1)c1ccc(Oc2ccccc2)cc1`, for which the Ki was more than 3000 nM.

The compound `CC(C)(Oc1cccc(Cl)c1)C(=O)N[C@H](Cc1ccccc1)C(=O)NCCCN1CCOCC1` had a Ki of 310 nM.

For `O=C(Nc1ccc(OCc2ccc(C(F)(F)F)cc2)cc1)N[C@@H](Cc1ccccc1)C(=O)NCCCN1CCOCC1`, the Ki was 790 nM.

With `CC(C)(Oc1ccc(F)cc1)C(=O)N[C@@H](Cc1ccccc1)C(=O)NCCCN1CCOCC1`, the Ki is more than 1000 nM.

In turn, `CC(C)(Oc1ccc(F)cc1)C(=O)N[C@H](Cc1ccccc1)C(=O)NCCCN1CCOCC1` displayed a Ki of more than 1000 nM.

Regarding `O=C(NCCCN1CCOCC1)[C@@H](Cc1ccccc1)NC(=O)N1CCC(Cc2ccccc2)CC1`, affinity was put at a Ki of 2000 nM.

In the case of `O=C(Nc1cccc(Oc2ccccc2)c1)N[C@H](Cc1ccccc1)C(=O)NCCCN1CCOCC1`, the Ki was 300 nM.

On to `CC(C)(Nc1ccccc1)C(=O)N[C@@H](Cc1ccccc1)C(=O)NCCCN1CCOCC1`, for which the Ki is more than 3000 nM.

The compound `O=C(Nc1ccccc1)N[C@H](Cc1ccccc1)C(=O)NCCCN1CCOCC1` displayed a Ki of more than 10000 nM.

For the compound `CCc1ccc(Oc2ccc(NC(=O)N[C@@H](Cc3ccccc3)C(=O)NCCCN3CCOCC3)cc2)cc1`, the inhibition constant (Ki) is 200 nM.

For `O=C(NCCCN1CCOCC1)[C@H](Cc1ccccc1)NC(=O)N1CCC(Cc2ccccc2)CC1`, the Ki was determined as 1600 nM.

Take `COc1cc(COc2ccc(NC(=O)N[C@H](Cc3ccccc3)C(=O)NCCCN3CCOCC3)cc2)cc(OC)c1`: the Ki is more than 1000 nM.

The compound `Cc1ccc(COc2ccc(NC(=O)N[C@@H](Cc3ccccc3)C(=O)NCCCN3CCOCC3)cc2)cc1` displayed a Ki of 790 nM.

On to `CN(Cc1ccccc1)C(=O)N[C@@H](Cc1ccccc1)C(=O)NCCCN1CCOCC1`, for which the Ki amounted to 2000 nM.

In turn, `Cc1ccc(COc2ccc(NC(=O)N[C@H](Cc3ccccc3)C(=O)NCCCN3CCOCC3)cc2)cc1` showed a Ki of more than 1000 nM.

As for `CC(C)(Oc1cccc(-c2ccccc2)c1)C(=O)N[C@H](Cc1ccccc1)C(=O)NCCCN1CCOCC1`, the affinity, expressed as Ki, was 10000 nM.

Consider `O=C(N[C@H](Cc1ccccc1)C(=O)NCCCN1CCOCC1)C(c1ccccc1)c1ccccc1`, for which the Ki is more than 10000 nM.

`CC(C)(Oc1cccc(Cl)c1)C(=O)N[C@@H](Cc1ccccc1)C(=O)NCCCN1CCOCC1` returned a Ki of more than 1000 nM.

For the compound `CC(C)(Oc1ccc(C(F)(F)F)cc1)C(=O)N[C@H](Cc1ccccc1)C(=O)NCCCN1CCOCC1`, the Ki is more than 1000 nM.

In turn, `CC(C)c1ccc(Oc2ccc(NC(=O)N[C@H](Cc3ccccc3)C(=O)NCCCN3CCOCC3)cc2)cc1` displayed a Ki of 200 nM.

`O=C(Nc1ccc(Oc2cccc(F)c2)cc1)N[C@H](Cc1ccccc1)C(=O)NCCCN1CCOCC1` showed a Ki of more than 1000 nM.

As to `O=C(N[C@H](Cc1ccccc1)C(=O)NCCCN1CCOCC1)c1cccc(-c2ccccc2)c1`, the Ki is more than 10000 nM.

The compound `O=C(Nc1ccc(OCc2cccc(Cl)c2)cc1)N[C@@H](Cc1ccccc1)C(=O)NCCCN1CCOCC1` showed a Ki of 320 nM.

Compound `O=C(NCCCN1CCOCC1)[C@@H](Cc1ccccc1)NC(=O)N1CCN(c2ccccc2)CC1` came in with a Ki of more than 3000 nM.

In turn, `O=C(Nc1ccc(Oc2ccc(F)cc2)cc1)N[C@H](Cc1ccccc1)C(=O)NCCCN1CCOCC1` yielded an inhibitory constant (Ki) of more than 310 nM.

With `CN(C(=O)N[C@@H](Cc1ccccc1)C(=O)NCCCN1CCOCC1)c1cccc(Oc2ccccc2)c1`, the Ki was more than 3000 nM.

Consider `O=C(Nc1ccc(Oc2ccccc2)cc1)N[C@@H](Cc1ccccc1)C(=O)NCCCN1CCOCC1`, for which the Ki was determined as 1000 nM.

`O=C(Nc1ccc(OCc2cc(F)cc(F)c2)cc1)N[C@H](Cc1ccccc1)C(=O)NCCCN1CCOCC1` registered a Ki of more than 1000 nM.

For `O=C(NCCCN1CCOCC1)[C@@H](Cc1ccccc1)NC(=O)N(c1ccccc1)c1ccccc1`, the Ki is more than 3000 nM.
